Test results taken from patent US9567322B2, “Substituted tetrahydropyrans and method of use” (AbbVie S.á.r.l., priority 2014, dated 2017).

Target: T1, F508delCFTR (Homo sapiens, UniProt P13569, DEL508-508)
T1 construct: expressed in transfected cells; host or cells: CFBE41o- (CFBE41o-F508delCFTR-HRP), doxycycline-inducible
Test: Cell Surface Expression-Horse Radish Peroxidase (CSE-HRP) assay
Format: cell-based
Conditions: CFBE41o-F508delCFTR-HRP cells; for EC50: cell surface expression, luminescence readout, 18-24 hours at 33° C., highest concentration tested 20 μM, 8-point curve; for Maximum % activity: maximum at any tested concentration, normalized to on-plate positive control (3 μM) and DMSO
Description: Cell Surface Expression-Horse Radish Peroxidase (CSE-HRP) Assay:
A cellular assay for measuring the F508delCFTR cell surface expression after correction with test compounds was developed in human lung derived epithelial cell line (CFBE41o-) (Veit G et al, (2012) Mol Biol Cell. 23(21): 4188-4202). This was achieved by expressing the F508delCFTR mutation along with a horseradish peroxidase (HRP) in the fourth exofacial loop and then measuring the HRP activity using luminescence readout from these cells, CFBE41o-F508delCFTR-HRP, that were incubated overnight with the test corrector compounds. Briefly, for this primary assay, the CFBE41o-F508delCFTR-HRP cells were plated in 384-well plates (Greiner Bio-one; Cat 781080) at 4,000 cells/well along with 0.5 μg/mL doxycycline to induce the F508delCFTR-HRP expression and further incubated at 37° C., 5% CO2 for 72 hours. The test compounds were then added at the required concentrations and further incubated for 18-24 hours at 33° C. The highest concentration tested was 20 μM with an 8-point concentration response curve using a 3-fold dilution. Three replicate plates were run to determine one EC50. All plates contained negative controls (dimethyl sulfoxide, DMSO) and positive controls (3 μM of 3-[(2R,4R)-4-({[1-(2,2-difluoro-1,3-benzodioxol-5-yl)cyclopropyl]carbonyl}amino)-7-methoxy-3,4-dihydro-2H-chromen-2-yl]benzoic acid) as well as on-plate concentration response of the positive control. Post incubation, the plates were washed 5× times with Dulbecco's phosphate buffered saline (DPBS), followed by the addition of the HRP substrate, luminol (50 μL), and measuring the HRP activity using luminescence readout on EnVision® Multilabel Plate Reader (Perkin Elmer; product number 2104-0010). The raw counts from the experiment are analyzed using Accelrys® Assay Explorer v3.3.
Z′ greater than 0.5 was used as passing quality control criteria for the plates.
The Z′ is defined as: 1−[3*SDPositive Control+3*SDNegative Control/Absolute(MeanPositive Control−MeanNegative Control)],
wherein “SD” is standard deviation.
The % activity measured at each of the 8 test concentrations of the test compound was normalized to the on-plate positive control using the following formula: % activity=[(test compound response−DMSO response)/(positive control response−DMSO response)]*100
The maximum % activity achieved for the test compound at any tested concentration is presented in Table 1 along with the EC50 calculated using the following general sigmoidal curve with variable Hill slope equation (described as Model 42 in the Accelrys® Assay Explorer v3.3 software): y=(a−d)/(1+(x/c)^b)+d General sigmoidal curve with concentration, response, top, bottom, EC50 and Hill slope.
This model describes a sigmoidal curve with an adjustable baseline, a. The equation can be used to fit curves where response is either increasing or decreasing with respect to the independent variable, “x”.
“x” is a concentration of drug under test.
“a” is the maximum response, and “d” is the minimum response
“c” is the inflection point (EC50) for the curve. That is, “y” is halfway between the lower and upper asymptotes when x=c.
“b” is the slope-factor or Hill coefficient. The sign of b is positive when the response increases with increasing dose and is negative when the response decreases with increasing dose (inhibition).

T1 sequence (P13569 with tags, fused parts or gaps DEL508-508): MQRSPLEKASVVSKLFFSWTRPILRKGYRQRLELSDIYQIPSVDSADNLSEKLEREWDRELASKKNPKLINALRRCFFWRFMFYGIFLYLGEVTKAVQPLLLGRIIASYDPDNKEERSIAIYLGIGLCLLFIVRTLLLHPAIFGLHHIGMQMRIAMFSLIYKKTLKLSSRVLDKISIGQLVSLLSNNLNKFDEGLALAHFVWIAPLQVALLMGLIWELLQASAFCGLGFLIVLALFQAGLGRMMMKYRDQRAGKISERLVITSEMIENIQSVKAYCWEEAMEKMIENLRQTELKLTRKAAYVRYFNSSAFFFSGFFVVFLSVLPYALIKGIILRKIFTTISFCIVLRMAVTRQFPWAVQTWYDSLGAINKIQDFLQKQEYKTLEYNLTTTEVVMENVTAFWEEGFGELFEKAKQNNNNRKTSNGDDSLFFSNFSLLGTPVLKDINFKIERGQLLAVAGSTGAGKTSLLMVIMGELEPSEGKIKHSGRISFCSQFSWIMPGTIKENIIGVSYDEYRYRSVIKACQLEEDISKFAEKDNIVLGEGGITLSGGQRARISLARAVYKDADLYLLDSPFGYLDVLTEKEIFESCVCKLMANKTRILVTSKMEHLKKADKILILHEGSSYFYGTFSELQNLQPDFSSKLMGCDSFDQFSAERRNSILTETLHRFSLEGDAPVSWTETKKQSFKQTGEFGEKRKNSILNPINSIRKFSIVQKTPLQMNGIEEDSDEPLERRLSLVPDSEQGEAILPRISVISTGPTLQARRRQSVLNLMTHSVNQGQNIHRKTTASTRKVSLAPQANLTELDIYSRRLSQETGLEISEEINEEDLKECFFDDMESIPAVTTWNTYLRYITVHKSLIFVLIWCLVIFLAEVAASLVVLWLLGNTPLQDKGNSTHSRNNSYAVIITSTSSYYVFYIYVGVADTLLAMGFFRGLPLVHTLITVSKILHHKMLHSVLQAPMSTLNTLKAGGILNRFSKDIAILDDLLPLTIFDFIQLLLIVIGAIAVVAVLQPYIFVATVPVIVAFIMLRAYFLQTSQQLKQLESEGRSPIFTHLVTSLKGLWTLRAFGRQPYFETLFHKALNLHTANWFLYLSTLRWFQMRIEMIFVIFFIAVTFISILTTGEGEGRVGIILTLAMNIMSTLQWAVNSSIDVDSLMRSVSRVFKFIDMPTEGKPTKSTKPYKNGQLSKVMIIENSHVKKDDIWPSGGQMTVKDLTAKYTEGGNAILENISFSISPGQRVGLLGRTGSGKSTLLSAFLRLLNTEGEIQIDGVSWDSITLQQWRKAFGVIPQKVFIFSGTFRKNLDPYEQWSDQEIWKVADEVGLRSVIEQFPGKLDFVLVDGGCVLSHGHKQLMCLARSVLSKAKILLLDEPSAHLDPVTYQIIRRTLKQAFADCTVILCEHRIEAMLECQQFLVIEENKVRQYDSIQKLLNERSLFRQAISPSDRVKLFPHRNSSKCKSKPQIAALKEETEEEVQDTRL

| Structure (SMILES) | EC50 | Maximum % activity |
| --- | --- | --- |
| O=C(O)c1ccc([C@@H]2C[C@H](NC(=O)C3(c4ccc5c(c4)OC(F)(F)O5)CC3)C[C@H](c3ccccc3)O2)cc1 (single isomer, unassigned) [Example 54] | 1710 nM | 71% |
| O=C(N[C@@H]1CCO[C@@H](c2ccc(Br)cc2)C1)C1(c2ccc3c(c2)OC(F)(F)O3)CC1 [Example 20, N-[(2R,4R)-2-(4-bromophenyl)tetrahydro-2H-pyran-4-yl]-1-(2,2-difluoro-1,3-benzodioxol-5-yl)cyclopropanecarboxamide] | 7300 nM | 45% |
| O=C(O)c1cccc([C@H]2C[C@H](NC(=O)C3(c4ccc5c(c4)OC(F)(F)O5)CC3)C[C@@H](c3ccccc3)O2)c1 (racemic) [Example 25, rac-3-[(2R,4R,6S)-4-({[1-(2,2-difluoro-1,3-benzodioxol-5-yl)cyclopropyl]carbonyl}amino)-6-phenyltetrahydro-2H-pyran-2-yl]benzoic acid] | 2020 nM | 108% |
| COC(=O)c1ccc(C)c([C@H]2C[C@@H](NC(=O)C3(c4ccc5c(c4)OC(F)(F)O5)CC3)C[C@@H](c3ccccc3)O2)c1 (racemic) [Example 71, methyl rac-3-[(2R,4S,6S)-4-({[1-(2,2-difluoro-1,3-benzodioxol-5-yl)cyclopropyl]carbonyl}amino)-6-phenyltetrahydro-2H-pyran-2-yl]-4-methylbenzoate] | 1310 nM | 92% |
| Cc1cc(C(=O)O)cc([C@@H]2C[C@H](NC(=O)C3(c4ccc5c(c4)OC(F)(F)O5)CC3)C[C@H](c3ccccc3)O2)c1 (single isomer, unassigned) [Example 76] | 1590 nM | 38% |
| COC(=O)c1ccc([C@H]2C[C@@H](NC(=O)C3(c4ccc5c(c4)OC(F)(F)O5)CC3)C[C@@H](C)O2)cc1 (racemic) [Example 39, methyl rac-4-[(2R,4S,6R)-4-({[1-(2,2-difluoro-1,3-benzodioxol-5-yl)cyclopropyl]carbonyl}amino)-6-methyltetrahydro-2H-pyran-2-yl]benzoate] | 1640 nM | 90% |
| COC(=O)c1cccc([C@H]2C[C@@H](NC(=O)C3(c4ccc5c(c4)OC(F)(F)O5)CC3)C[C@@H](c3ccccc3)O2)c1 (racemic) [Example 23, methyl rac-3-[(2R,4S,6S)-4-({[1-(2,2-difluoro-1,3-benzodioxol-5-yl)cyclopropyl]carbonyl}amino)-6-phenyltetrahydro-2H-pyran-2-yl]benzoate] | 850 nM | 104% |
| O=C(O)c1ccc([C@@H]2C[C@H](NC(=O)C3(c4ccc5c(c4)OC(F)(F)O5)CC3)CCO2)cc1 [Example 30, 4-[(2S,4R)-4-({[1-(2,2-difluoro-1,3-benzodioxol-5-yl)cyclopropyl]carbonyl}amino)tetrahydro-2H-pyran-2-yl]benzoic acid] | 9570 nM | 26% |
| C[C@@H]1C[C@H](NC(=O)C2(c3ccc4c(c3)OC(F)(F)O4)CC2)C[C@H](c2ccc(C(=O)O)cc2)O1 (single isomer, unassigned) [Example 59] | 980 nM | 90% |
| O=C(O)c1ccc(C2CC(NC(=O)C3(c4ccc5c(c4)OC(F)(F)O5)CC3)CC(C3CC3)O2)cc1 (centres unmarked) [Example 44, 4-[6-cyclopropyl-4-({[1-(2,2-difluoro-1,3-benzodioxol-5-yl)cyclopropyl]carbonyl}amino)tetrahydro-2H-pyran-2-yl]benzoic acid] | 2580 nM | 88% |
| COC(=O)c1cccc([C@H]2C[C@@H](NC(=O)C3(c4ccc5c(c4)OC(F)(F)O5)CC3)CCO2)c1 (racemic) [Example 3, methyl rac-3-[(2R,4S)-4-({[1-(2,2-difluoro-1,3-benzodioxol-5-yl)cyclopropyl]carbonyl}amino)tetrahydro-2H-pyran-2-yl]benzoate] | 1410 nM | 64% |
| COC(=O)c1ccc([C@@H]2C[C@H](NC(=O)C3(c4ccc5c(c4)OC(F)(F)O5)CC3)C[C@H](c3ccc(C(=O)OC)cc3)O2)cc1 [Example 51, dimethyl rac-4,4′-[(2R,4s,6S)-4-({[1-(2,2-difluoro-1,3-benzodioxol-5-yl)cyclopropyl]carbonyl}amino)tetrahydro-2H-pyran-2,6-diyl]dibenzoate] | 760 nM | 103% |
| COC(=O)c1ccc([C@H]2C[C@@H](NC(=O)C3(c4ccc5c(c4)OC(F)(F)O5)CC3)CCO2)cc1 [Example 29, methyl 4-[(2R,4S)-4-({[1-(2,2-difluoro-1,3-benzodioxol-5-yl)cyclopropyl]carbonyl}amino)tetrahydro-2H-pyran-2-yl]benzoate] | 1050 nM | 107% |
| Cc1cc(C(=O)O)ccc1[C@H]1C[C@@H](NC(=O)C2(c3ccc4c(c3)OC(F)(F)O4)CC2)CCO1 (stereo in doubt) [Example 37, rac-4-[(2R,4S)-4-({[1-(2,2-difluoro-1,3-benzodioxol-5-yl)cyclopropyl]carbonyl}amino)tetrahydro-2H-pyran-2-yl]-3-methylbenzoic acid] | 470 nM | 115% |
| CC(C)(O)c1cccc([C@H]2C[C@H](NC(=O)C3(c4ccc5c(c4)OC(F)(F)O5)CC3)CCO2)c1 (racemic) [Example 7, rac-1-(2,2-difluoro-1,3-benzodioxol-5-yl)-N-{(2R,4R)-2-[3-(2-hydroxypropan-2-yl)phenyl]tetrahydro-2H-pyran-4-yl}cyclopropanecarboxamide] | 5560 nM | 27% |
| CC(C)(O)c1cccc([C@H]2C[C@@H](NC(=O)C3(c4ccc5c(c4)OC(F)(F)O5)CC3)CCO2)c1 (racemic) [Example 10, rac-1-(2,2-difluoro-1,3-benzodioxol-5-yl)-N-{(2R,4S)-2-[3-(2-hydroxypropan-2-yl)phenyl]tetrahydro-2H-pyran-4-yl}cyclopropanecarboxamide] | 2090 nM | 58% |
| COc1ccc([C@@H]2C[C@H](NC(=O)C3(c4ccc5c(c4)OC(F)(F)O5)CC3)C[C@H](c3ccc(C(=O)O)cc3)O2)cc1 (single isomer, unassigned) [Example 66] | 320 nM | 79% |
| COC(=O)c1ccc([C@H]2C[C@@H](NC(=O)C3(c4ccc5c(c4)OC(F)(F)O5)CC3)CCO2)cc1 (racemic) [Example 13, methyl rac-4-[(2R,4S)-4-({[1-(2,2-difluoro-1,3-benzodioxol-5-yl)cyclopropyl]carbonyl}amino)tetrahydro-2H-pyran-2-yl]benzoate] | 1160 nM | 110% |
| CCOC(=O)c1cc(C)cc([C@H]2C[C@@H](NC(=O)C3(c4ccc5c(c4)OC(F)(F)O5)CC3)C[C@@H](c3ccccc3)O2)c1 (racemic) [Example 72, ethyl rac-3-[(2R,4S,6S)-4-({[1-(2,2-difluoro-1,3-benzodioxol-5-yl)cyclopropyl]carbonyl}amino)-6-phenyltetrahydro-2H-pyran-2-yl]-5-methylbenzoate] | 1160 nM | 106% |
